This is an account of results in ChEMBL document CHEMBL1201862, “PubChem BioAssay data set” (2004).

Structures are written as SMILES.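 These data come from cells grown in 96-well plates and exposed to compound for 48 hours at five concentrations. GI50 is the concentration that inhibits growth by half.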 Calls of active or inactive are those of the source. Rule as the data show it: active = GI50 up to about 1.1 µM and inactive = higher.

Holding throughout (test): growth of human tumour cells (NCI), 48 h
Assay [1] has as its system SW-620.
Assay [2] relates to CAKI-1.
The test system of assay [3] is MDA-MB-435.
For assay [4], the system named is NCI-H522.
Assay [5] has as its system MDA-MB-231.
The subject of assay [6] is RXF 393.
The subject of assay [7] is DU-145.
Assay [8] deals with SK-OV-3.
For assay [9], the system named is K562.
Assay [10] has as its system SK-MEL-5.
Assay [11] has as its system TK-10.
Assay [12] has as its system HCT-15.
In assay [13] the test system is OVCAR-3.
For assay [14], the system named is ACHN.
Assay [15] concerns HOP-62.
The test system of assay [16] is SNB-19.
The subject of assay [17] is SK-MEL-2.
Assay [18] has as its system COLO 205.
The test system of assay [19] is Malme-3M.
For assay [20], the system named is NCI-H460.

For the compound `Oc1c2cccc1Cc1cccc3c1OCCOCCOCCOCCOc1c(cccc1Cc1cccc(c1O)C3)C2`, the GI50 in assay [1] was > 100 µM (inactive); in [2], > 100 µM (inactive); in assay [3], > 100 µM (inactive); in [4], 18.5 µM (inactive); in [5], 89.7 µM (inactive); in [6] it was > 100 µM (inactive). The GI50 is > 100 µM (inactive) in [7]; > 100 µM (inactive) in assay [8]; > 100 µM (inactive) in [9]; > 100 µM (inactive) in assay [10]; > 100 µM (inactive) in assay [11]; greater than 100 µM in [12]. Further, the GI50 was 0.897 µM (active) in assay [13]; > 100 µM (inactive) in assay [14]; > 100 µM (inactive) in [15]; > 100 µM (inactive) in [16]; > 100 µM (inactive) in [17]; > 100 µM (inactive) in assay [18].

For the compound `COC(=O)C1Cc2ccc3c(c2C1=O)CCCC3` (stereo not given), the GI50 in [1] is 86.5 µM (inactive); in assay [2], > 100 µM (inactive); in assay [3] it was > 100 µM (inactive); in [4] it was > 100 µM (inactive); in [5], 83 µM (inactive); in assay [7], > 100 µM (inactive). In addition, the GI50 was > 100 µM (inactive) in assay [8]; 22.2 µM (inactive) in [9]; 68.2 µM (inactive) in assay [10]; > 100 µM (inactive) in assay [11]; > 100 µM (inactive) in assay [19]; 69.5 µM in [12]. The GI50 in assay [13] is 80.7 µM (inactive); in assay [14], > 100 µM (inactive); in assay [15], 89.7 µM (inactive); in [20], > 100 µM (inactive); in assay [16], > 100 µM (inactive); in assay [17], > 100 µM (inactive). For the same compound, the GI50 in assay [18] was > 100 µM (inactive).

Consider `O=c1oc2ccccc2cc1-c1csc(Nc2cc(Cl)cc(Cl)c2)n1`, for which the GI50 in assay [1] is 11.9 µM (inactive); in [3], 4.9 µM (inactive); in assay [4], 20.9 µM (inactive); in assay [5], 4.66 µM (inactive); in assay [6] it was 5.14 µM (inactive); in assay [7], 31.2 µM (inactive). Further, the GI50 was > 34.6 µM (inactive) in assay [8]; > 100 µM (inactive) in [9]; > 56.1 µM (inactive) in [10]; 20.6 µM (inactive) in assay [11]; 11.7 µM (inactive) in assay [19]; greater than 100 µM in assay [12]. The GI50 is 11.5 µM (inactive) in assay [13]; 1.9 µM (inactive) in [14]; 3.85 µM (inactive) in [15]; 6.64 µM (inactive) in [20]; > 24.2 µM (inactive) in assay [16]; > 100 µM (inactive) in assay [17]. In assay [18], the GI50 is 18 µM (inactive).

On to `COC(=O)OC[C@H]1O[C@@H](n2cc(C)c(=O)[nH]c2=O)CC1OC(=O)OC` (stereo not given in full), for which the GI50 in assay [1], in assay [3], in assay [4], in assay [5], in assay [6] and in assay [7] was > 100 µM (inactive) each time. The GI50 is > 100 µM (inactive) in assay [8]; > 100 µM (inactive) in assay [9]; > 100 µM (inactive) in assay [10]; > 100 µM (inactive) in assay [11]; > 100 µM (inactive) in assay [19]; greater than 100 µM in assay [12]. The GI50 in assay [13], in [14], in [15], in assay [20], in assay [16] and in assay [17] was > 100 µM (inactive) throughout. Also, in assay [18], the GI50 was > 100 µM (inactive).

With `O=c1c2nc3ccccc3c(=O)n2ncn1-c1ccccc1Cl`, the GI50 in assay [1], in assay [2], in assay [3], in [4], in [5] and in assay [7] was > 100 µM (inactive) in each case. Also, the GI50 is > 100 µM (inactive) in assay [8]; > 100 µM (inactive) in assay [9]; > 100 µM (inactive) in [10]; > 100 µM (inactive) in assay [11]; > 100 µM (inactive) in assay [19]; greater than 100 µM in [12]. The GI50 in assay [13], in assay [14], in assay [15], in assay [20], in assay [16] and in assay [17] was > 100 µM (inactive) in each case. For the same compound, the GI50 in assay [18] was > 100 µM (inactive).

Take `O=[N+]([O-])c1ccc(-n2nc3ccc4c(no[n+]4[O-])c3n2)cc1`: the GI50 in assay [1] is > 100 µM (inactive); in [2], > 100 µM (inactive); in [3] it was > 100 µM (inactive); in [4], > 100 µM (inactive); in [5] it was > 100 µM (inactive); in assay [7] it was 35.4 µM (inactive). Also, the GI50 in [8] is > 100 µM (inactive); in assay [9], > 100 µM (inactive); in assay [10], 80.2 µM (inactive); in [11] it was > 100 µM (inactive); in [19] it was > 100 µM (inactive); in assay [12] it was greater than 100 µM. In addition, the GI50 in assay [13] was > 100 µM (inactive); in [14], 7.11 µM (inactive); in [15] it was 35.2 µM (inactive); in [20] it was 33.2 µM (inactive); in [16], > 100 µM (inactive); in assay [17], > 100 µM (inactive). Moreover, the GI50 in assay [18] was > 100 µM (inactive).

On to `CCOC1NC(=O)Oc2cc3ccccc3cc21` (stereo not given), for which the GI50 in [1], in [3], in [4], in assay [5], in assay [6] and in assay [7] was > 100 µM (inactive) each time. For the same compound, the GI50 in assay [8] is > 100 µM (inactive); in assay [9] it was 40.6 µM (inactive); in [10] it was > 100 µM (inactive); in [11] it was > 100 µM (inactive); in [19] it was > 100 µM (inactive); in assay [12] it was 34.4 µM. The GI50 in assay [13] was 30.2 µM (inactive); in [14] it was > 100 µM (inactive); in [15] it was > 100 µM (inactive); in assay [20], > 100 µM (inactive); in assay [16], 64.3 µM (inactive); in assay [18], > 100 µM (inactive).

Turning to `C/C(=N\NC(=S)N1CCCC1)c1nc2cccnc2[nH]1`, the GI50 was 1.22 µM (inactive) in assay [1]; 0.37 µM (active) in assay [2]; 0.416 µM (active) in assay [3]; 11.1 µM (inactive) in assay [4]; 16.5 µM (inactive) in assay [5]; 0.175 µM (active) in [7]. In addition, the GI50 is 0.442 µM (active) in assay [8]; 0.349 µM (active) in [9]; 0.217 µM (active) in [10]; 0.557 µM (active) in assay [11]; 0.583 µM (active) in assay [19]; 0.137 µM in [12]. For the same compound, the GI50 in [13] is 0.35 µM (active); in assay [14] it was 0.0897 µM (active); in assay [15] it was 0.356 µM (active); in assay [20], 0.0612 µM (active); in assay [16] it was 0.37 µM (active); in assay [17], 4.34 µM (inactive). Also, the GI50 in [18] is 0.378 µM (active).
